Results: patent US9708314B2, “Heterocyclic amide compound” (NISSAN CHEMICAL INDUSTRIES, LTD., priority 2013, dated 2017)

Legend:
Assay type in all cases: in vivo
[1] = test system: directly sowed Oryza sativa; test: Test Example 4: effect on crop by application to foliage (diluvial soil, plastic box); conditions: 320 g/ha; for d (directly sowed Oryza sativa) effect on crop grade: foliage application
In short: (§1)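 Plants were grown in sterilized diluvial soil in a greenhouse at 25-30° C for 14 days, then sprayed on stems and leaves with water-diluted emulsion formulation at set rates in g/ha. Weed control and crop injury were scored 3 weeks after treatment on a 0-5 herbicidal-ratio scale, from 0 (≤5%) to 5 (≥90%).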

Zea mays = test: as above; conditions: 320 g/ha; for b (Zea mays) effect on crop grade: foliage application
In short: as §1

Brassica campestris L. = test: as above; conditions: 320 g/ha; for g (Brassica campestris L.) effect on crop grade: foliage application
In short: as §1

Glycine max = test: as above; conditions: 320 g/ha; for c (Glycine max) effect on crop grade: foliage application
In short: as §1

[2] = test system: Beta vulgaris ssp. vulgaris; test: as above; conditions: 320 g/ha; for f (Beta vulgaris ssp. vulgaris) effect on crop grade: foliage application
In short: as §1

Triticum aestivum = test: as above; conditions: 320 g/ha; for e (Triticum aestivum) effect on crop grade: foliage application
In short: as §1

Scirpus juncoides = test: Test Example 1: herbicidal activity, application before weed generation in submerged conditions; conditions: Application herbicide amount 320 g/ha; Seventeenth Table
In short: (§2)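 Pre-emergence application to water surface of submerged pots (4 cm depth, alluvial soil) on sowing day, with 2.5-leaf rice transplanted; emulsion diluted to g/ha rates. Grown in greenhouse at 25–30 °C; 0–5 herbicidal/crop-effect score after three weeks.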

Monochoria vaginalis = test: as above; conditions: Application herbicide amount 320 g/ha; Seventeenth Table
In short: as §2

[3] = test system: Echinochloa oryzacola Vasing.; test: as above; conditions: Application herbicide amount 320 g/ha; Seventeenth Table
In short: as §2

Stellaria media = test: Test Example 4: herbicidal effect by application to foliage (diluvial soil, plastic box); conditions: 320 g/ha; for P (Stellaria media) herbicidal effect grade: foliage application
In short: as §1

Lolium multiflorum Lam. = test: as above; conditions: 320 g/ha; for K (Lolium multiflorum Lam.) herbicidal effect grade: foliage application
In short: as §1

Digitaria ciliaris = test: as above; conditions: 320 g/ha; for F (Digitaria ciliaris) herbicidal effect grade: foliage application
In short: as §1

Galium spurium = test: as above; conditions: 320 g/ha; for Q (Galium spurium) herbicidal effect grade: foliage application
In short: as §1

[4] = test system: Echinochloa crus-galli var. crus-galli; test: as above; conditions: 320 g/ha; for H (Echinochloa crus-galli var. crus-galli) herbicidal effect grade: foliage application
In short: as §1

Chenopodium album = test: as above; conditions: 320 g/ha; for O (Chenopodium album) herbicidal effect grade: foliage application
In short: as §1

Avena fatua = test: as above; conditions: 320 g/ha; for I (Avena fatua) herbicidal effect grade: foliage application
In short: as §1

Abutilon theophrasti = test: as above; conditions: 320 g/ha; for M (Abutilon theophrasti) herbicidal effect grade: foliage application
In short: as §1

Apera spica-venti. = test: as above; conditions: 320 g/ha; for L (Apera spica-venti.) herbicidal effect grade: foliage application
In short: as §1

Amaranthus retroflexus = test: as above; conditions: 320 g/ha; for N (Amaranthus retroflexus) herbicidal effect grade: foliage application
In short: as §1

Setaria viridis = test: as above; conditions: 320 g/ha; for G (Setaria viridis) herbicidal effect grade: foliage application
In short: as §1

Veronica persica = test: as above; conditions: 320 g/ha; for R (Veronica persica) herbicidal effect grade: foliage application
In short: as §1

Alopecurus myosuroides = test: as above; conditions: 320 g/ha; for J (Alopecurus myosuroides) herbicidal effect grade: foliage application
In short: as §1

Compound | d (directly sowed Oryza sativa) effect on crop grade [1] | b (Zea mays) effect on crop grade (Zea mays) | g (Brassica campestris L.) effect on crop grade (Brassica campestris L.) | c (Glycine max) effect on crop grade (Glycine max) | f (Beta vulgaris ssp. vulgaris) effect on crop grade [2] | e (Triticum aestivum) effect on crop grade (Triticum aestivum) | B: Scirpus juncoides (herbicidal effect grade) (Scirpus juncoides) | C: Monochoria vaginalis (herbicidal effect grade) (Monochoria vaginalis) | A: Echinochloa oryzicola Vasing. (herbicidal effect grade) [3] | P (Stellaria media) herbicidal effect grade (Stellaria media) | K (Lolium multiflorum Lam.) herbicidal effect grade (Lolium multiflorum Lam.) | F (Digitaria ciliaris) herbicidal effect grade (Digitaria ciliaris) | Q (Galium spurium) herbicidal effect grade (Galium spurium) | H (Echinochloa crus-galli var. crus-galli) herbicidal effect grade [4] | O (Chenopodium album) herbicidal effect grade (Chenopodium album) | I (Avena fatua) herbicidal effect grade (Avena fatua) | M (Abutilon theophrasti) herbicidal effect grade (Abutilon theophrasti) | L (Apera spica-venti.) herbicidal effect grade (Apera spica-venti.) | N (Amaranthus retroflexus) herbicidal effect grade (Amaranthus retroflexus) | G (Setaria viridis) herbicidal effect grade (Setaria viridis) | other results
CCCS(=O)(=O)c1nnc2c(C(=O)Nc3nnnn3C)ccc(C(F)(F)F)n12 [2-070] | 3 (Herbicidal ratio of 40% or more and less than 70%) | 3 (Herbicidal ratio of 40% or more and less than 70%) | 5 (Herbicidal ratio of 90% or more (almost completely withered)) | 4 (Herbicidal ratio of 70% or more and less than 90%) | 5 (Herbicidal ratio of 90% or more (almost completely withered)) | 4 (Herbicidal ratio of 70% or more and less than 90%) | 5 (Herbicidal ratio of 90% or more (almost completely withered)) | 5 (Herbicidal ratio of 90% or more (almost completely withered)) | 5 (Herbicidal ratio of 90% or more (almost completely withered)) | 5 (Herbicidal ratio of 90% or more (almost completely withered)) | 4 (Herbicidal ratio of 70% or more and less than 90%) | 5 (Herbicidal ratio of 90% or more (almost completely withered)) | 4 (Herbicidal ratio of 70% or more and less than 90%) | 5 (Herbicidal ratio of 90% or more (almost completely withered)) | 5 (Herbicidal ratio of 90% or more (almost completely withered)) | 5 (Herbicidal ratio of 90% or more (almost completely withered)) | 4 (Herbicidal ratio of 70% or more and less than 90%) | 4 (Herbicidal ratio of 70% or more and less than 90%) | 5 (Herbicidal ratio of 90% or more (almost completely withered)) | 5 (Herbicidal ratio of 90% or more (almost completely withered)) | R (Veronica persica) herbicidal effect grade (Veronica persica): 5 (Herbicidal ratio of 90% or more (almost completely withered)); J (Alopecurus myosuroides) herbicidal effect grade (Alopecurus myosuroides): 4 (Herbicidal ratio of 70% or more and less than 90%)
Cc1cc(-c2nnc3c(C(=O)Nc4nnnn4C)ccc(C(F)(F)F)n23)n(C)n1 [2-062] | 5 (Herbicidal ratio of 90% or more (almost completely withered)) | 5 (Herbicidal ratio of 90% or more (almost completely withered)) | 5 (Herbicidal ratio of 90% or more (almost completely withered)) | 5 (Herbicidal ratio of 90% or more (almost completely withered)) | 5 (Herbicidal ratio of 90% or more (almost completely withered)) | 4 (Herbicidal ratio of 70% or more and less than 90%) | 5 (Herbicidal ratio of 90% or more (almost completely withered)) | 5 (Herbicidal ratio of 90% or more (almost completely withered)) | 5 (Herbicidal ratio of 90% or more (almost completely withered)) | 5 (Herbicidal ratio of 90% or more (almost completely withered)) | 5 (Herbicidal ratio of 90% or more (almost completely withered)) | 5 (Herbicidal ratio of 90% or more (almost completely withered)) | 5 (Herbicidal ratio of 90% or more (almost completely withered)) | 5 (Herbicidal ratio of 90% or more (almost completely withered)) | 5 (Herbicidal ratio of 90% or more (almost completely withered)) | 5 (Herbicidal ratio of 90% or more (almost completely withered)) | 5 (Herbicidal ratio of 90% or more (almost completely withered)) | 5 (Herbicidal ratio of 90% or more (almost completely withered)) | 5 (Herbicidal ratio of 90% or more (almost completely withered)) | 5 (Herbicidal ratio of 90% or more (almost completely withered)) | R (Veronica persica) herbicidal effect grade (Veronica persica): 5 (Herbicidal ratio of 90% or more (almost completely withered)); J (Alopecurus myosuroides) herbicidal effect grade (Alopecurus myosuroides): 4 (Herbicidal ratio of 70% or more and less than 90%)
CC(C)c1nnc2c(C(=O)Nc3nnnn3Cc3ccc(Cl)cc3)ccc(C(F)(F)F)n12 [2-093] |  |  |  |  |  |  | 5 (Herbicidal ratio of 90% or more (almost completely withered)) | 4 (Herbicidal ratio of 70% or more and less than 90%) | 5 (Herbicidal ratio of 90% or more (almost completely withered)) |  |  |  |  |  |  |  |  |  |  |  | effect on crop, d (directly sowed Oryza sativa) ([1]; application to foliage): 3 (Herbicidal ratio of 40% or more and less than 70%); effect on crop, b (Zea mays) (Zea mays; application to foliage): 0 (Herbicidal ratio of 5% or less (almost no effect)); effect on crop, g (Brassica campestris L.) (Brassica campestris L.; application to foliage): 1 (Herbicidal ratio of 5% or more and less than 20%); effect on crop, c (Glycine max) (Glycine max; application to foliage): 0 (Herbicidal ratio of 5% or less (almost no effect)); effect on crop, f (Beta vulgaris ssp. vulgaris) ([2]; application to foliage): 2 (Herbicidal ratio of 20% or more and less than 40%); effect on crop, e (Triticum aestivum) (Triticum aestivum; application to foliage): 1 (Herbicidal ratio of 5% or more and less than 20%); herbicidal effect, P (Stellaria media) (Stellaria media; application to foliage): 5 (Herbicidal ratio of 90% or more (almost completely withered)); herbicidal effect, K (Lolium multiflorum Lam.) (Lolium multiflorum Lam.; application to foliage): 1 (Herbicidal ratio of 5% or more and less than 20%); herbicidal effect, F (Digitaria ciliaris) (Digitaria ciliaris; application to foliage): 1 (Herbicidal ratio of 5% or more and less than 20%); herbicidal effect, Q (Galium spurium) (Galium spurium; application to foliage): 2 (Herbicidal ratio of 20% or more and less than 40%); herbicidal effect, H (Echinochloa crus-galli var. crus-galli) ([4]; application to foliage): 1 (Herbicidal ratio of 5% or more and less than 20%); herbicidal effect, O (Chenopodium album) (Chenopodium album; application to foliage): 5 (Herbicidal ratio of 90% or more (almost completely withered)); herbicidal effect, I (Avena fatua) (Avena fatua; application to foliage): 1 (Herbicidal ratio of 5% or more and less than 20%); herbicidal effect, M (Abutilon theophrasti) (Abutilon theophrasti; application to foliage): 3 (Herbicidal ratio of 40% or more and less than 70%); herbicidal effect, L (Apera spica-venti.) (Apera spica-venti.; application to foliage): 1 (Herbicidal ratio of 5% or more and less than 20%); herbicidal effect, N (Amaranthus retroflexus) (Amaranthus retroflexus; application to foliage): 2 (Herbicidal ratio of 20% or more and less than 40%); herbicidal effect, G (Setaria viridis) (Setaria viridis; application to foliage): 0 (Herbicidal ratio of 5% or less (almost no effect)); herbicidal effect, R (Veronica persica) (Veronica persica; application to foliage): 2 (Herbicidal ratio of 20% or more and less than 40%); herbicidal effect, J (Alopecurus myosuroides) (Alopecurus myosuroides; application to foliage): 1 (Herbicidal ratio of 5% or more and less than 20%)
